Converted amounts (≈) assume the structure as drawn. Blank lines part the entries; values can stand above or below the compound they belong to.
What was measured:
Assay type in all cases: cell-based
[1] = test system: S. aureus (VISA); test: MIC, clinical and laboratory strains
Experimental: (§1) The medium employed for the assay was Mueller Hinton II Broth (MHB II; Becton-Dickinson, Sparks, MD, USA). Agar plates used for the organisms were trypticase soy agar plus 5% sheep blood (BD; Sparks, MD, USA). MIC assay plates were prepared using the CLSI broth microdilution procedure. Automated liquid handlers (Multidrop 384, Biomek 2000 and Biomek FX) were used to conduct serial dilutions and liquid transfers. A standardized inoculum of each organism was prepared per CLSI methods. Suspensions were prepared to equal a 0.5 McFarland standard, followed by a 1:20 dilution in test media. The inocula were dispensed into sterile reservoirs divided by length (Beckman Colter) and the Biomek 2000 was used to inoculate the plates. Daughter plates were placed on the Biomek 2000 work surface in reverse orientation so that inoculation took place from low to high drug concentration. The Biomek 2000 delivered 10 μL of the diluted suspension into each well. These inoculations yielded a final cell concentration in the daughter plates of ~5 × 10^5 colony-forming units/mL in each well. The wells of the daughter plates ultimately contained 185 μL of broth, 5 μL of drug solution, and 10 μL of bacterial inoculum. Plates were covered with a sterile lid on the top plate, placed in plastic bags, and incubated at 35 °C for ~18 h. The microplates were viewed from the bottom using a plate viewer and the MIC was read. The MIC was recorded as the lowest concentration of drug that inhibited visible growth of the organism.

[2] = test system: S. aureus (MRSA); test: MIC, clinical and laboratory strains
Experimental: as §1

[3] = test system: S. aureus (MSSA); test: MIC, clinical and laboratory strains
Experimental: as §1

[4] = test system: 102 ATCC strains and clinical isolates of Staphylococcus, Streptomyces, and Enterococcus; test: MIC panel summary over all strains; conditions: of 102 strains
Experimental: We also sought to determine if DNM0547 was bacteriostatic or bactericidal. Time kill experiments were carried out using increasing doses of DNM0547 against two different strains of MRSA.
as §1

- MIC ([1]; S. aureus (VISA) 1724): 0.25 µg/mL (≈ 0.341 µM)
- MIC ([1]; S. aureus (VISA) 2012): > 16 µg/mL
- MIC ([1]; S. aureus (VISA) 2013): > 16 µg/mL
- MIC ([1]; S. aureus (VISA) 2014): > 16 µg/mL
- MIC ([1]; S. aureus (VISA) 2015): > 16 µg/mL
- MIC ([1]; S. aureus (VISA) 2016): > 16 µg/mL
- MIC ([1]; S. aureus (VISA) 2017): 0.25 µg/mL (≈ 0.341 µM)
- MIC ([1]; S. aureus (VISA) 2018): > 16 µg/mL
- MIC ([1]; S. aureus (VISA) 2019): > 16 µg/mL
- MIC ([1]; S. aureus (VISA) 2123): > 16 µg/mL
- MIC ([1]; S. aureus (VISA) NRS1/1723): > 16 µg/mL
- MIC ([2]; S. aureus (MRSA) 2167): > 16 µg/mL
- MIC ([2]; S. aureus (MRSA) 2168): > 16 µg/mL
- MIC ([2]; S. aureus (MRSA) 2169): > 16 µg/mL
- MIC ([2]; S. aureus (MRSA) 2170): > 16 µg/mL
- MIC ([2]; S. aureus (MRSA) 2171): > 16 µg/mL
- MIC ([2]; S. aureus (MRSA) 2293): > 16 µg/mL
- MIC ([2]; S. aureus (MRSA) 2294): > 16 µg/mL
- MIC ([2]; S. aureus (MRSA) 2295): > 16 µg/mL
- MIC ([2]; S. aureus (MRSA) 2296): 0.5 µg/mL (≈ 0.681 µM)
- MIC ([2]; S. aureus (MRSA) 2297): > 16 µg/mL
- MIC ([2]; S. aureus (MRSA) 3880): > 16 µg/mL
- MIC ([2]; S. aureus (MRSA) 5373): > 16 µg/mL
- MIC ([2]; S. aureus (MRSA) 5666): > 16 µg/mL
- MIC ([2]; S. aureus (MRSA) 5702): > 16 µg/mL
- MIC ([2]; S. aureus (MRSA) 5999): > 16 µg/mL
- MIC ([2]; S. aureus (MRSA) 6165): > 16 µg/mL
- MIC ([2]; S. aureus (MRSA) 6169): > 16 µg/mL
- MIC ([2]; S. aureus (MRSA) 6174): > 16 µg/mL
- MIC ([2]; S. aureus (MRSA) 6311): > 16 µg/mL
- MIC ([2]; S. aureus (MRSA) 6312): > 16 µg/mL
- MIC ([2]; S. aureus (MRSA) 6313): > 16 µg/mL
- MIC ([2]; S. aureus (MRSA) 6315): > 16 µg/mL
- MIC ([2]; S. aureus (MRSA) 6320): > 16 µg/mL
- MIC ([2]; S. aureus (MRSA) 6498): 0.5 µg/mL (≈ 0.681 µM)
- MIC ([2]; S. aureus (MRSA) 6501): > 16 µg/mL
- MIC ([2]; S. aureus (MRSA) 6505): > 16 µg/mL
- MIC ([2]; S. aureus (MRSA) 6506): 0.5 µg/mL (≈ 0.681 µM)
- MIC ([2]; S. aureus (MRSA) NRS382/2119): > 16 µg/mL
- MIC ([2]; S. aureus (MRSA) NRS383/2120): > 16 µg/mL
- MIC ([2]; S. aureus (MRSA) NRS384/2011): > 16 µg/mL
- MIC ([3]; S. aureus (MSSA) 2127): 0.12 µg/mL (≈ 0.164 µM)
- MIC ([3]; S. aureus (MSSA) 6167): > 16 µg/mL
- MIC ([3]; S. aureus (MSSA) 6168): 0.25 µg/mL (≈ 0.341 µM)
- MIC ([3]; S. aureus (MSSA) 6170): 0.5 µg/mL (≈ 0.681 µM)
- MIC ([3]; S. aureus (MSSA) 6316): > 16 µg/mL
- MIC ([3]; S. aureus (MSSA) 6317): 0.5 µg/mL (≈ 0.681 µM)
- MIC ([3]; S. aureus (MSSA) 6318): > 16 µg/mL
- MIC ([3]; S. aureus (MSSA) 6499): > 16 µg/mL
- MIC ([3]; S. aureus (MSSA) 6500): 8 µg/mL (≈ 10.9 µM)
- MIC ([3]; S. aureus (MSSA) 6502): 0.25 µg/mL (≈ 0.341 µM)
- number of strains tested with MIC not ≤ 2 μg/mL [4]: 76
SMILES: CC[C@H]1OC(=O)[C@H](C)[C@@H](O[C@H]2C[C@@](C)(OC)[C@@H](O)[C@H](C)O2)[C@H](C)[C@@H](O[C@@H]2O[C@H](C)C[C@H](N(C)C)[C@H]2O)[C@](C)(O)C[C@@H](C)C(=O)[C@H](C)[C@@H](O)[C@]1(C)O [erythromycin]

SMILES: CN[C@H](CC(C)C)C(=O)N[C@H]1C(=O)N[C@@H](CC(N)=O)C(=O)N[C@H]2C(=O)N[C@H]3C(=O)N[C@H](C(=O)N[C@H](C(=O)O)c4cc(O)cc(O)c4-c4cc3ccc4O)[C@H](O)c3ccc(c(Cl)c3)Oc3cc2cc(c3O[C@@H]2O[C@H](CO)[C@@H](O)[C@H](O)[C@H]2O[C@H]2C[C@](C)(N)[C@H](O)[C@H](C)O2)Oc2ccc(cc2Cl)[C@H]1O [vancomycin]
- MIC ([1]; S. aureus (VISA) 1724): 4 µg/mL (≈ 2.76 µM)
- MIC ([1]; S. aureus (VISA) 2012): 8 µg/mL (≈ 5.52 µM)
- MIC ([1]; S. aureus (VISA) 2013): 4 µg/mL (≈ 2.76 µM)
- MIC ([1]; S. aureus (VISA) 2014): 4 µg/mL (≈ 2.76 µM)
- MIC ([1]; S. aureus (VISA) 2015): 4 µg/mL (≈ 2.76 µM)
- MIC ([1]; S. aureus (VISA) 2016): 4 µg/mL (≈ 2.76 µM)
- MIC ([1]; S. aureus (VISA) 2017): 8 µg/mL (≈ 5.52 µM)
- MIC ([1]; S. aureus (VISA) 2018): 4 µg/mL (≈ 2.76 µM)
- MIC ([1]; S. aureus (VISA) 2019): 4 µg/mL (≈ 2.76 µM)
- MIC ([1]; S. aureus (VISA) 2123): 8 µg/mL (≈ 5.52 µM)
- MIC ([1]; S. aureus (VISA) NRS1/1723): 8 µg/mL (≈ 5.52 µM)
- MIC ([2]; S. aureus (MRSA) 2167): 0.5 µg/mL (≈ 0.345 µM)
- MIC ([2]; S. aureus (MRSA) 2168): 0.5 µg/mL (≈ 0.345 µM)
- MIC ([2]; S. aureus (MRSA) 2169): 1 µg/mL (≈ 0.69 µM)
- MIC ([2]; S. aureus (MRSA) 2170): 0.5 µg/mL (≈ 0.345 µM)
- MIC ([2]; S. aureus (MRSA) 2171): 0.5 µg/mL (≈ 0.345 µM)
- MIC ([2]; S. aureus (MRSA) 2293): 0.5 µg/mL (≈ 0.345 µM)
- MIC ([2]; S. aureus (MRSA) 2294): 0.5 µg/mL (≈ 0.345 µM)
- MIC ([2]; S. aureus (MRSA) 2295): 0.5 µg/mL (≈ 0.345 µM)
- MIC ([2]; S. aureus (MRSA) 2296): 0.5 µg/mL (≈ 0.345 µM)
- MIC ([2]; S. aureus (MRSA) 2297): 1 µg/mL (≈ 0.69 µM)
- MIC ([2]; S. aureus (MRSA) 3880): 0.5 µg/mL (≈ 0.345 µM)
- MIC ([2]; S. aureus (MRSA) 5373): 0.5 µg/mL (≈ 0.345 µM)
- MIC ([2]; S. aureus (MRSA) 5666): 0.5 µg/mL (≈ 0.345 µM)
- MIC ([2]; S. aureus (MRSA) 5702): 0.5 µg/mL (≈ 0.345 µM)
- MIC ([2]; S. aureus (MRSA) 5999): 0.5 µg/mL (≈ 0.345 µM)
- MIC ([2]; S. aureus (MRSA) 6165): 1 µg/mL (≈ 0.69 µM)
- MIC ([2]; S. aureus (MRSA) 6169): 0.5 µg/mL (≈ 0.345 µM)
- MIC ([2]; S. aureus (MRSA) 6174): 0.5 µg/mL (≈ 0.345 µM)
- MIC ([2]; S. aureus (MRSA) 6311): 1 µg/mL (≈ 0.69 µM)
- MIC ([2]; S. aureus (MRSA) 6312): 0.5 µg/mL (≈ 0.345 µM)
- MIC ([2]; S. aureus (MRSA) 6313): 0.5 µg/mL (≈ 0.345 µM)
- MIC ([2]; S. aureus (MRSA) 6315): 1 µg/mL (≈ 0.69 µM)
- MIC ([2]; S. aureus (MRSA) 6320): 1 µg/mL (≈ 0.69 µM)
- MIC ([2]; S. aureus (MRSA) 6498): 0.5 µg/mL (≈ 0.345 µM)
- MIC ([2]; S. aureus (MRSA) 6501): 0.5 µg/mL (≈ 0.345 µM)
- MIC ([2]; S. aureus (MRSA) 6505): 0.5 µg/mL (≈ 0.345 µM)
- MIC ([2]; S. aureus (MRSA) 6506): 0.5 µg/mL (≈ 0.345 µM)
- MIC ([2]; S. aureus (MRSA) NRS382/2119): 1 µg/mL (≈ 0.69 µM)
- MIC ([2]; S. aureus (MRSA) NRS383/2120): 0.5 µg/mL (≈ 0.345 µM)
- MIC ([2]; S. aureus (MRSA) NRS384/2011): 0.5 µg/mL (≈ 0.345 µM)
- MIC ([3]; S. aureus (MSSA) 2127): 1 µg/mL (≈ 0.69 µM)
- MIC ([3]; S. aureus (MSSA) 6167): 0.5 µg/mL (≈ 0.345 µM)
- MIC ([3]; S. aureus (MSSA) 6168): 0.5 µg/mL (≈ 0.345 µM)
- MIC ([3]; S. aureus (MSSA) 6170): 0.5 µg/mL (≈ 0.345 µM)
- MIC ([3]; S. aureus (MSSA) 6316): 1 µg/mL (≈ 0.69 µM)
- MIC ([3]; S. aureus (MSSA) 6317): 0.5 µg/mL (≈ 0.345 µM)
- MIC ([3]; S. aureus (MSSA) 6318): 0.5 µg/mL (≈ 0.345 µM)
- MIC ([3]; S. aureus (MSSA) 6499): 0.5 µg/mL (≈ 0.345 µM)
- MIC ([3]; S. aureus (MSSA) 6500): 0.5 µg/mL (≈ 0.345 µM)
- MIC ([3]; S. aureus (MSSA) 6502): 0.5 µg/mL (≈ 0.345 µM)
- number of strains tested with MIC not ≤ 2 μg/mL [4]: 37

From paper PMC11436758, “Computer-aided drug design to generate a unique antibiotic family” (Nature Communications, 2024)
